# Source: US10377770B2 (Novartis AG, priority 2015, dated 2019)
# pIC50: −log10 of the molar value.
# Molecular target: C-Raf FL (full length CRAF with Y340E and Y341E activating mutations, co-expressed with h14-3-3 zeta) (Homo sapiens (Human), UniProt P04049, Y340E/Y341E)
# Assay: In vitro Raf activity determination, AlphaScreen p-MEK readout, c-Raf (C-Raf FL)
# Format: biochemical
# Conditions: c-Raf approximately 4 nM, ATP 1 μM, pre-incubation 60 minutes, reaction 1 hour
# Method in brief: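 Full-length C-Raf (~4 nM) pre-incubated 60 min at room temperature with compound and kinase-dead biotinylated MEK1 (~10 nM) in Tris pH 7.5, 15 mM MgCl2, BSA, DTT. Reaction started with 1 μM ATP and run 1 h at room temperature. Phospho-MEK detected by AlphaScreen with anti-p-MEK antibody.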
# C-Raf FL (full length CRAF with Y340E and Y341E activating mutations, co-expressed with h14-3-3 zeta), sequence (P04049 whole entry Y340E/Y341E): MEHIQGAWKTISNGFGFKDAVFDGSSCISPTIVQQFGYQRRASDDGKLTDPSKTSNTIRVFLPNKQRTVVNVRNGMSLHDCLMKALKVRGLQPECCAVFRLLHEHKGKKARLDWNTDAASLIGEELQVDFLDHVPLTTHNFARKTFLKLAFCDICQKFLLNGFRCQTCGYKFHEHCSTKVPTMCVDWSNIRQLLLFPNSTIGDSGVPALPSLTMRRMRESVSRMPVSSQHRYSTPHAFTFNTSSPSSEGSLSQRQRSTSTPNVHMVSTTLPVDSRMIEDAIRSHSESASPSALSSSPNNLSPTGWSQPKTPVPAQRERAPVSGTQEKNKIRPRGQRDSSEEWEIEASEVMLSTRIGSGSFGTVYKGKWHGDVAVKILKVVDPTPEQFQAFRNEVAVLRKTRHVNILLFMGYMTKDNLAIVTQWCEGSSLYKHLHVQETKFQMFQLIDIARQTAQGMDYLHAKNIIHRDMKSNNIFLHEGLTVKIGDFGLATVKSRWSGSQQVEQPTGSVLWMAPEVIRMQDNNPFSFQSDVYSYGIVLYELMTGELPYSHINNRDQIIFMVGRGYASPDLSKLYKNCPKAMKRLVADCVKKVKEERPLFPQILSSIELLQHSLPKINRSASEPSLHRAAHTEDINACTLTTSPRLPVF
# C-Raf FL (full length CRAF with Y340E and Y341E activating mutations, co-expressed with h14-3-3 zeta), sequence (P63104 whole entry partner): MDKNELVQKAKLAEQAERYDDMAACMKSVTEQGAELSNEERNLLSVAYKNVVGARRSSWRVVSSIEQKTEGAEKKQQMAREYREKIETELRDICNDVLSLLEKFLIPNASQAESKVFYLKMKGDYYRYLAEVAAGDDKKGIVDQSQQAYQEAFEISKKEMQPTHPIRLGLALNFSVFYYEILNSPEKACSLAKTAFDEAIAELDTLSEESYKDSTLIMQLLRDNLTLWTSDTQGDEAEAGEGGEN
row,SMILES,pIC50
1,"CCN1C(=O)C2COCC[C@@]2(C)c2cc(-c3cc(NC(=O)c4cncc(C(F)(F)F)c4)ccc3C)cnc21 (stereo in doubt) [Example 346, N-(3-((4a,10b-trans)-6-ethyl-10b-methyl-5-oxo-1,4,4a,5,6,10b-hexahydro-2H-pyrano[3,4-c][1,8]naphthyridin-9-yl)-4-methylphenyl)-5-(trifluoromethyl)nicotinamide]",10.00
2,"Cc1ccc(NC(=O)c2ccnc(C(C)(C)F)c2)cc1-c1cc2n(c(=O)c1)CCC1CCOCCN21 (stereo in doubt) [Example 418, (S)-2-(2-fluoropropan-2-yl)-N-(4-methyl-3-(9-oxo-1,2,5,5a,6,7-hexahydro-4H,9H-pyrido[2′,1′:2,3]pyrimido[1,6-d][1,4]oxazepin-11-yl)phenyl)isonicotinamide]",8.68
3,"CCOC(=O)c1c2n(c3cc(-c4cc(NC(=O)c5ccnc(C(F)(F)F)c5)ccc4C)ccc3c1=O)CCOC2 [Example 1, ethyl 9-(2-methyl-5-(2-(trifluoromethyl)isonicotinamido)phenyl)-6-oxo-1,2,4,6-tetrahydro-[1,4]oxazino[4,3-a]quinoline-5-carboxylate]",10.35
4,"Cc1ccc(NC(=O)c2ccnc(C(F)(F)F)c2)cc1-c1ccc2c(=O)c(C(=O)O)c3n(c2c1)CCOC3 [Example 2, 9-(2-methyl-5-(2-(trifluoromethyl)isonicotinamido)phenyl)-6-oxo-1,2,4,6-tetrahydro-[1,4]oxazino[4,3-a]quinoline-5-carboxylic Acid]",9.87
5,"Cc1ccc(NC(=O)c2ccnc(C(F)(F)F)c2)cc1-c1ccc2c(c1)N1CCOC[C@H]1C[C@H]2O [Example 4, N-(3-((4aR,6R)-6-hydroxy-1,2,4,4a,5,6-hexahydro-[1,4]oxazino[4,3-a]quinolin-9-yl)-4-methylphenyl)-2-(trifluoromethyl)isonicotinamide]",11.21
6,"Cc1ccc(NC(=O)c2ccnc(C(F)(F)F)c2)cc1-c1ccc2c(c1)N1CCOC[C@@H]1C[C@@H]2O [Example 5, N-(3-((4aS,6S)-6-hydroxy-1,2,4,4a,5,6-hexahydro-[1,4]oxazino[4,3-a]quinolin-9-yl)-4-methylphenyl)-2-(trifluoromethyl)isonicotinamide]",10.44
7,"Cc1ccc(NC(=O)c2ccnc(C(C)(F)F)c2)cc1-c1ccc2c(c1)N1CCOC[C@H]1C[C@H]2O [Example 13, 2-(1,1-difluoroethyl)-N-(3-((4aR,6R)-6-hydroxy-1,2,4,4a,5,6-hexahydro-[1,4]oxazino[4,3-a]quinolin-9-yl)-4-methylphenyl)isonicotinamide]",11.26
8,"Cc1ccc(NC(=O)c2ccnc(C(C)(F)F)c2)cc1-c1ccc2c(c1)N1CCOC[C@H]1C[C@@]2(C)O [Example 24, 2-(1,1-difluoroethyl)-N-(3-((4aR,6R)-6-hydroxy-6-methyl-1,2,4,4a,5,6-hexahydro-[1,4]oxazino[4,3-a]quinolin-9-yl)-4-methylphenyl)isonicotinamide]",10.31
9,"Cc1ccc(NC(=O)c2ccnc(C(C)(F)F)c2)cc1-c1ccc2c(c1)N1CCOC[C@@H]1C[C@]2(C)O [Example 25, 2-(1,1-difluoroethyl)-N-(3-((4aS,6S)-6-hydroxy-6-methyl-1,2,4,4a,5,6-hexahydro-[1,4]oxazino[4,3-a]quinolin-9-yl)-4-methylphenyl)isonicotinamide]",9.28
10,"COC1CC2COCCN2c2cc(-c3cc(NC(=O)c4ccnc(C(C)(F)F)c4)ccc3C)cnc21 (stereo not drawn) [Example 33, 2-(1,1-difluoroethyl)-N-(3-(6-methoxy-1,2,4,4a,5,6-hexahydro-[1,4]oxazino[4,3-a][1,5]naphthyridin-9-yl)-4-methylphenyl)isonicotinamide]",11.09
11,"Cc1ccc(NC(=O)c2ccnc(C(C)(F)F)c2)cc1-c1ccc2c(c1)N1CCOC[C@@H]1C(CO)(CO)C2 [Example 53, (S)—N-(3-(5,5-bis(hydroxymethyl)-1,2,4,4a,5,6-hexahydro-[1,4]oxazino[4,3-a]quinolin-9-yl)-4-methylphenyl)-2-(1,1-difluoroethyl)isonicotinamide]",11.21
12,"Cc1ccc(NC(=O)c2ccnc(C(C)(F)F)c2)cc1-c1ccc2c(c1)N1CCOC[C@H]1C1(COC1)C2 [Example 57, (R)-2-(1,1-difluoroethyl)-N-(4-methyl-3-(1′,2′,4′,4a′-tetrahydro-6′H-spiro[oxetane-3,5′-[1,4]oxazino[4,3-a]quinolin]-9′-yl)phenyl)isonicotinamide]",10.96
13,"Cc1ccc(NC(=O)c2ccnc(C(C)(F)F)c2)cc1-c1ccc2c(c1)N1CCOC[C@@H]1C1(COC1)C2 [Example 58, (S)-2-(1,1-difluoroethyl)-N-(4-methyl-3-(1′,2′,4′,4a′-tetrahydro-6′H-spiro[oxetane-3,5′-[1,4]oxazino[4,3-a]quinolin]-9′-yl)phenyl)isonicotinamide]",11.00
14,"Cc1ccc(NC(=O)c2ccnc(C(C)(F)F)c2)cc1-c1ccc2c(c1)N1CCOC[C@H]1[C@](F)(CO)C2 [Example 80, 2-(1,1-difluoroethyl)-N-(3-((4aS,5S)-5-fluoro-5-(hydroxymethyl)-1,2,4,4a,5,6-hexahydro-[1,4]oxazino[4,3-a]quinolin-9-yl)-4-methylphenyl)isonicotinamide]",9.38
15,"Cc1ccc(NC(=O)c2ccnc(C(C)(F)F)c2)cc1-c1ccc2c(c1)N1CCOC[C@@H]1[C@@](F)(CO)C2 [Example 81, 2-(1,1-difluoroethyl)-N-(3-((4aR,5R)-5-fluoro-5-(hydroxymethyl)-1,2,4,4a,5,6-hexahydro-[1,4]oxazino[4,3-a]quinolin-9-yl)-4-methylphenyl)isonicotinamide]",10.09
16,"Cc1ncc(NC(=O)c2ccnc(C(C)(F)F)c2)cc1-c1ccc2c(c1)N1CCOC[C@H]1[C@](F)(CO)C2 [Example 84, 2-(1,1-difluoroethyl)-N-(5-((4aS,5S)-5-fluoro-5-(hydroxymethyl)-1,2,4,4a,5,6-hexahydro-[1,4]oxazino[4,3-a]quinolin-9-yl)-6-methylpyridin-3-yl)isonicotinamide]",9.00
17,"Cc1ncc(NC(=O)c2ccnc(C(C)(F)F)c2)cc1-c1ccc2c(c1)N1CCOC[C@@H]1[C@@](F)(CO)C2 [Example 85, 2-(1,1-difluoroethyl)-N-(5-((4aR,5R)-5-fluoro-5-(hydroxymethyl)-1,2,4,4a,5,6-hexahydro-[1,4]oxazino[4,3-a]quinolin-9-yl)-6-methylpyridin-3-yl)isonicotinamide]",10.15
18,Cc1ccc(NC(=O)c2ccnc(C(C)(F)F)c2)cc1-c1cc2n(c(=O)c1)CCC1COCCN21 (stereo not drawn) [Example 95],10.52
19,"Cc1ncc(NC(=O)c2ccnc(C(C)(F)F)c2)cc1-c1ccc2c(c1)N1CCOCC[C@@H]1C[C@@H]2O [Example 97, 2-(1,1-difluoroethyl)-N-(5-((5aR,7S)-7-hydroxy-1,2,5,5a,6,7-hexahydro-4H-[1,4]oxazepino[4,5-a]quinolin-10-yl)-6-methylpyridin-3-yl)isonicotinamide]",10.85
20,"Cc1ncc(NC(=O)c2ccnc(C(C)(F)F)c2)cc1-c1ccc2c(c1)N1CCOCC[C@H]1C[C@H]2O [Example 98, 2-(1,1-difluoroethyl)-N-(5-((5aS,7R)-7-hydroxy-1,2,5,5a,6,7-hexahydro-4H-[1,4]oxazepino[4,5-a]quinolin-10-yl)-6-methylpyridin-3-yl)isonicotinamide]",9.25
21,"Cc1ccc(NC(=O)c2ccnc(C(C)(F)F)c2)cc1-c1cnc2c(c1)N1CCOCC1C(CS(C)(=O)=O)C2 (stereo not drawn) [Example 99, 2-(1,1-difluoroethyl)-N-(4-methyl-3-(5-((methylsulfonyl)methyl)-1,2,4,4a,5,6-hexahydro-[1,4]oxazino[4,3-a][1,5]naphthyridin-9-yl)phenyl)isonicotinamide]",10.42
22,"Cc1ccc(NC(=O)c2ccnc(C(F)(F)F)c2)cc1-c1cnc2c(c1)N1CCOC[C@H]1C[C@H]2O [Example 102, N-(3-((4aR,6R)-6-Hydroxy-1,2,4,4a,5,6-hexahydro-[1,4]oxazino[4,3-a][1,5]naphthyridin-9-yl)-4-methylphenyl)-2-(trifluoromethyl)isonicotinamide]",> 11.77
23,"Cc1ccc(NC(=O)c2ccnc(C(F)(F)F)c2)cc1-c1cnc2c(c1)N1CCOC[C@@H]1C[C@@H]2O [Example 103, N-(3-((4aS,6S)-6-hydroxy-1,2,4,4a,5,6-hexahydro-[1,4]oxazino[4,3-a][1,5]naphthyridin-9-yl)-4-methylphenyl)-2-(trifluoromethyl)isonicotinamide]",10.89
24,"Cc1ncc(NC(=O)c2cccc(C(F)(F)F)c2)cc1-c1cnc2c(c1)N1CCOC[C@H]1C[C@H]2O [Example 105, N-(5-((4aR,6R)-6-Hydroxy-1,2,4,4a,5,6-hexahydro-[1,4]oxazino[4,3-a][1,5]naphthyridin-9-yl)-6-methylpyridin-3-yl)-3-(trifluoromethyl)benzamide]",10.35
25,"Cc1ncc(NC(=O)c2cccc(C(F)(F)F)c2)cc1-c1cnc2c(c1)N1CCOC[C@@H]1C[C@@H]2O [Example 106, N-(5-((4aS,6S)-6-Hydroxy-1,2,4,4a,5,6-hexahydro-[1,4]oxazino[4,3-a][1,5]naphthyridin-9-yl)-6-methylpyridin-3-yl)-3-(trifluoromethyl)benzamide]",10.92
26,"Cc1ccc(NC(=O)c2ccnc(C(C)(F)F)c2)cc1-c1cnc2c(c1)N1CCOC[C@H]1C[C@H]2O [Example 108, 2-(1,1-Difluoroethyl)-N-(3-((4aR,6R)-6-hydroxy-1,2,4,4a,5,6-hexahydro-[1,4]oxazino[4,3-a][1,5]naphthyridin-n-9-yl)-4-methylphenyl)isonicotinamide]",10.89
27,"Cc1ccc(NC(=O)c2ccnc(C(C)(F)F)c2)cc1-c1cnc2c(c1)N1CCOC[C@@H]1C[C@@H]2O [Example 109, 2-(1,1-difluoroethyl)-N-(3-((4aS,6S)-6-hydroxy-1,2,4,4a,5,6-hexahydro-[1,4]oxazino[4,3-a][1,5]naphthyridin-n-9-yl)-4-methylphenyl)isonicotinamide]",11.24
